Target: hERG cardiac potassium channel (Kv11.1) (Homo sapiens, UniProt Q12809)
Format: cell-based
Conditions: hamster, cho cells

Chain of hERG cardiac potassium channel (Kv11.1) (Q12809 whole entry): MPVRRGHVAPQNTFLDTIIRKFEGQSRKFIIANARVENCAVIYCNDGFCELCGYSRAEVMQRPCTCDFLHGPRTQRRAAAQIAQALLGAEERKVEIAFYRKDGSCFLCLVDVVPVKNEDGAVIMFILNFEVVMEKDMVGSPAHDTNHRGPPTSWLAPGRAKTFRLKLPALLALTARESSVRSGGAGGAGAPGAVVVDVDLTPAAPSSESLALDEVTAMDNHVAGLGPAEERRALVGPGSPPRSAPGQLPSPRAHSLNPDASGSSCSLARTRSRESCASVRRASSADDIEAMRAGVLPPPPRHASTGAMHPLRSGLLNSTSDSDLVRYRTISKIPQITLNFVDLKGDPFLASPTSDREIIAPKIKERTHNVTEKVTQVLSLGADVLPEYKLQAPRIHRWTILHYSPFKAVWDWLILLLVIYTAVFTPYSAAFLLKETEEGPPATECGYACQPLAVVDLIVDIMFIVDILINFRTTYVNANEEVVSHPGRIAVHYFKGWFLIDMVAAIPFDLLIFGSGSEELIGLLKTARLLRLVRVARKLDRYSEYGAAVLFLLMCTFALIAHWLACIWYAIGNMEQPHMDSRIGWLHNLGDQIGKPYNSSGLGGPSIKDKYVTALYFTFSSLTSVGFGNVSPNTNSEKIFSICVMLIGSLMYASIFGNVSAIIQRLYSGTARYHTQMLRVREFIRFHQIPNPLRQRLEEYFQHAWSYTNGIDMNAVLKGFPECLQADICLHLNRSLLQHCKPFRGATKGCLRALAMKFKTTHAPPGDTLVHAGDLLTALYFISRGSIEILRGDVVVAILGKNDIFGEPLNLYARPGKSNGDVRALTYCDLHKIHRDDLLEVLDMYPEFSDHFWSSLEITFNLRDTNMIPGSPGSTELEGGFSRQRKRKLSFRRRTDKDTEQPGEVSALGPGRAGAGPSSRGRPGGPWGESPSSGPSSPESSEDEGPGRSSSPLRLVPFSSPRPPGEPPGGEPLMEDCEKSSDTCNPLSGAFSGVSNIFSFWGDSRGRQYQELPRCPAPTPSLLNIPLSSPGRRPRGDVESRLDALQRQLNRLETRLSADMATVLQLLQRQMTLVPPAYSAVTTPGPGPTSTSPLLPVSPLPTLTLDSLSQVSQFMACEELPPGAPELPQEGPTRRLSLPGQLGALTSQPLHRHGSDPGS

AZA-2
IC50: 2.2 µM

Reference: paper PMC3946725 (Archives of toxicology, 2013)
